One compound from patent US9265189B2, “Method for reducing damage by harmful organisms in corn cultivation” (SUMITOMO CHEMICAL COMPANY, LIMITED, priority 2012, dated 2016) can be followed below.

Format in all cases: in vivo
One test has as its system Agriotes spp. Description: Field test, corn plants damaged by Agriotes spp. after in-furrow spray (Example 2). Conditions: Example section 2: clothianidin 50 g/ha, in-furrow spray of Dantop 50WG aqueous suspension 100 L/ha, corn DK 440, 34 days after application; non-treatment section 73.3. The procedure: Using a pneumatic seeder (disk furrow opener, manufactured by Gaspardo) equipped with a power sprayer (trade name: WJR 2525, manufactured by HONDA), a cultivated land was ditched at intervals of 75 cm to a depth of 3 cm from the soil surface, and the furrow was seeded with corn (Zea Mays, trade name: DK 440; hybrid variety, manufactured by Monsanto) at intervals of […]. A seeding density of corn was 100000 seeds/ha. Then, the furrow was spray-treated with an aqueous suspension of a clothianidin water dispersible granule (using a 50% dispersible granule, trade name: Dantop 50WG, manufactured by Philagro) at 100 L/ha so that the application amount of clothianidin was 50 g/ha, and then a soil on the side of the furrow was gathered together to close the furrow. This was defined as an example section 2. For comparison, a non-treatment section, which was seeded with corn without application of a clothianidin water dispersible granule, was provided. […] 34 days after application of the clothianidin water dispersible granule, the number of plants of corn damaged by Agriotes spp. in each of the example section 2 and the non-treatment section was investigated, a damage plant rate was calculated in accordance with the following equation, and then an average damage plants rate of the four investigation sections was determined. […]

The test system of test [1] is Diabrotica virgifera virgifera and Agriotes lineatus. Description: Field test, corn lodged due to damage by Diabrotica virgifera virgifera and Agriotes lineatus (Example 5). The note with it: Example section 5: clothianidin 80 g/ha, in-furrow spray of Dantop 50WG 125 L/ha, corn DKC 5143 seed treated with Maxim XL, MaisTer pre-treatment, 155 days after application; non-treatment section 36. From the text:
A chemical fertilizer (N:P:K=15:15:15) was applied to the soil surface of a cultivated land at 300 kg/ha, and the cultivated land was then plowed. In order to prevent generation of weeds, 28 days after fertilization, the whole cultivated land was spraying-treated with a mixed agent (using 610 g/kg water dispersible granule, trade name: […], manufactured by Bayer CropScience) of foramsulfuron and an iodosulfuron-methyl-sodium salt, each of which being a herbicide, and a safener, isoxadifen-ethyl, at 0.15 L/ha in terms of an application amount of the preparation. 3 days after application of the preparation, using a pneumatic seeder (disk furrow opener) equipped with a power sprayer, a cultivated land was ditched at intervals of 75 cm to a depth of 5 cm from the soil surface, and the furrow was seeded with corn (variety name: DKC 5143; hybrid variety, manufactured by Monsanto). […] 155 days after application of the clothianidin water dispersible granule, the number of plants of corn lodged due to damage by Diabrotica virgifera virgifera and Agriotes lineatus in the furrows of the example section 5 and the non-treatment section, for which the number of plants of corn germinated was investigated, was investigated, a lodge rate was calculated in accordance with the following equation, and then an average lodge rate for the four investigation sections was determined. […]

For test [2] the test system is unchanged. The test is described as follows: Field test, corn lodged due to damage by Diabrotica virgifera virgifera and Agriotes lineatus (Example 4). Conditions: Example section 4: clothianidin 80 g/ha, in-furrow spray of Dantop 50WG 125 L/ha, corn DKC 5143 seed treated with Maxim XL, 165 days after application; non-treatment section 23. The procedure:
Ammonium phosphate (N:P:K=12:52:0) and urea (N:P:K=46:0:0), each of which being a fertilizer, were applied to the soil surface of a cultivated land at 100 kg/ha and 260 kg/ha, respectively, and the cultivated land was plowed. 24 days after fertilization, using a pneumatic seeder (disk furrow opener) equipped with a power sprayer, a cultivated land was ditched at intervals of 75 cm to a depth of 5 cm from the soil surface, and the furrow was seeded with corn (Zea Mays, variety name: DKC 5143; hybrid variety, manufactured by Monsanto). The cultivated land was seeded at intervals of 20 cm using, as a corn seed, one treated with a mixed agent of metalaxyl-M and fludioxonil (trade name: Maxim XL, manufactured by Syngenta). A seeding density of corn was 66667 seeds/ha. […] 165 days after application of the clothianidin water dispersible granule, the number of plants of corn lodged due to damage by Diabrotica virgifera virgifera and Agriotes lineatus in the furrows of the example section 4 and the non-treatment section, for which the number of plants of corn germinated was investigated, was investigated, a lodge rate was calculated in accordance with the following equation, and then an average lodge rate for the four investigation sections was determined. […]

Regarding `CN/C(=N\[N+](=O)[O-])NCc1cnc(Cl)s1` [clothianidin], in the test on Agriotes spp., the “Damage plant rate (%)” value was 7.7%. Besides, the “Lodge rate (%)” value was 0% in test [1] and 4% in test [2].
